Assay in all cases: NCI tumour cell line growth inhibition, 48 h
For assay [1], the system named is TK-10 renal.
The test system of assay [2] is SNB-75 CNS.
Assay [3] deals with KM12 colon.
The test system of assay [4] is OVCAR-8 ovarian.
Assay [5] deals with OVCAR-3 ovarian.
Assay [6] concerns MALME-3M melanoma.
Assay [7] has as its system M14 melanoma.
The subject of assay [8] is HOP-62 NSCLC.
In assay [9] the test system is A549 NSCLC.
Assay [10] deals with SR leukemia.

“And” between values parts separate entries of the source, which are not always exact repeats. Identical values can stand only once.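 Each compound was tested at five concentrations against cells in 96-well plates for 48 hours. GI50 is the concentration that inhibits growth by half. TGI is the concentration that stops growth completely.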

Results on 18 compounds are retold here after PubChem BioAssay (NCI).

In the case of `Cc1cc(N[C@@H]2CCC[C@H](Nc3ccnc4cc(Cl)ccc34)C2)nc(N2CCCCCC2)n1`, the GI50 was 1.73 µM in [1]; 1.43 µM in assay [2]; 2.06 µM in assay [3]; 2.51 µM in assay [4]; 1.91 µM in assay [5]; 1.83 µM in assay [6]. In addition, the GI50 in assay [7] is 1.55 µM; in assay [8], 1.37 µM; in assay [9] it was 2.19 µM; in assay [10], 0.228 µM. For the same compound, the TGI in [1] is 3.52 µM; in assay [2], 3.14 µM; in assay [3], 4.48 µM; in assay [4], 6.1 µM; in assay [5], 4.06 µM; in [6], 3.42 µM. Also, the TGI in assay [7] was 3.29 µM; in [8] it was 3.03 µM; in assay [9], 4.94 µM; in assay [10], 0.847 µM.

For the compound `O=c1c(F)cn(Cc2ccc(C34CC5CC(CC(C5)C3)C4)c(O)c2)c(=O)n1Cc1ccc(C23CC4CC(CC(C4)C2)C3)c(O)c1`, the GI50 is 15.7 µM in assay [1]; 15.1 µM in assay [2]; 15.5 µM in [3]; 14.5 µM in assay [4]; 15.3 µM in assay [5]; 14.8 µM in [6]. In addition, the GI50 in assay [7] was 18.4 µM; in assay [8], 17.5 µM; in assay [9] it was 4.2 µM; in assay [10], 7.17 µM. For the same compound, the TGI was 30 µM in assay [1]; 30 µM in [2]; 32.8 µM in [3]; 45.5 µM in assay [4]; 29.2 µM in [5]; 29.2 µM in assay [6]. For the same compound, the TGI in assay [7] was 45.3 µM; in assay [8], 33.1 µM; in [9] it was over 100 µM; in assay [10], 26.5 µM.

Consider `Cc1nc(Nc2cccnc2)sc1C(=O)/C=C/c1ccc(F)cc1`, for which the GI50 was 2.98 µM in assay [1]; 3.42 µM in assay [2]; 2.04 µM in [3]; 3.92 µM in [4]; 3.14 µM in assay [5]; 5.55 µM in assay [6]. Besides, the GI50 in assay [7] was 3.02 µM; in [8] it was 2.61 µM; in assay [9], 3.15 µM; in assay [10], 1.69 µM. Moreover, the TGI was over 100 µM in assay [1]; 67.1 µM in assay [2]; 4.61 µM in assay [3]; over 100 µM in [4]; 12.8 µM in [5]; 40 µM in assay [6]. Besides, the TGI was 12.9 µM in assay [7], 7.6 µM in [8], over 100 µM in assay [9] and over 100 µM in [10].

As to `C[C@@H]1C[C@@H]([C@@H](CC2CC(=O)NC(=O)C2)OC(=O)CC(=O)c2ccccc2)C(=O)[C@@H](C)C1`, the GI50 was 0.306 µM in assay [1]; 0.911 µM in assay [2]; 0.888 µM in [3]; 0.405 µM in [4]; 1.74 µM in assay [5]; 0.496 µM in [6]. For the same compound, the GI50 in [7] was 0.588 µM; in assay [8], 0.99 µM; in assay [9] it was 0.567 µM; in assay [10], 2.01 µM. Besides, the TGI in [1] was over 24.3 µM; in [2] it was over 55.1 µM; in [3] it was 70.6 µM; in [4], over 68.8 µM; in [5], over 32.7 µM; in assay [6], 13.6 µM. For the same compound, the TGI in [7] was over 49.1 µM; in [8], over 100 µM; in assay [9], over 100 µM; in assay [10], over 100 µM.

In the case of `O=C(/C=C/c1ccc[nH]1)c1ccc(-n2ccc(C(F)(F)F)n2)cc1`, the GI50 is over 100 µM in assay [1]; 0.877 µM in assay [2]; 0.463 µM in [3]; over 100 µM in [4]; 0.764 µM in [5]; over 100 µM in [6]. The GI50 in assay [7] is over 100 µM; in assay [8], over 100 µM; in assay [9] it was 9.64 µM; in assay [10], 9.15 µM. Besides, the TGI was over 100 µM in assay [1]; 4.37 µM in assay [2]; 8.95 µM in [3]; over 100 µM in [4]; 22.6 µM in assay [5]; over 100 µM in [6]. Moreover, the TGI in assay [7], in assay [8], in [9] and in assay [10] was over 100 µM each time.

Consider `O=C(CC1C(=O)Nc2ccccc2S1=O)Nc1cc(Cl)ccc1Cl` (centres undefined), for which the TGI in [1], in [2], in assay [4], in assay [5], in [6] and in assay [7] was over 100 µM each time. Also, the TGI in assay [9] and in assay [10] was over 100 µM each time.

As for `C=CCCCCC1CCC2CCC(CCCCC=C)N12` (centres undefined), the TGI in [1] was 34.8 µM; in assay [2] it was 43.1 µM; in assay [3], 29.6 µM; in assay [4], 33.1 µM; in [5], 30.2 µM; in assay [6], 31.8 µM. In addition, the TGI was 31.3 µM in assay [7], 33 µM in assay [8], 30 µM in [9] and 33.4 µM in [10].

Take `NC(N)=N/N=C/c1c(Cl)cccc1Cl`: the GI50 in [1] was 21.9 µM; in assay [2] it was 16.7 µM; in assay [3], 19.9 µM; in [4] it was 30 µM; in assay [5] it was 28.1 µM; in assay [6] it was 16.2 µM. Moreover, the GI50 in assay [8] was 30.9 µM; in [9], 27.4 µM; in assay [10], 22.2 µM. Moreover, the TGI in assay [1] is 66.3 µM; in assay [2], 54.1 µM; in assay [3] it was 59.1 µM; in assay [4], over 100 µM; in assay [5], over 100 µM; in assay [6], 33.5 µM. The TGI in [8] was over 100 µM; in assay [9], over 100 µM; in assay [10], 56.3 µM.

Turning to `Cc1ccc2nc(/C(=C/c3ccc(/C=C(\NC(=O)c4ccccc4)c4nc5ccc(C)cc5[nH]4)c(C)c3)NC(=O)c3ccccc3)[nH]c2c1`, the TGI in [1] is 88 µM; in [2], over 100 µM; in [3], 37.5 µM; in assay [4], 81.8 µM; in assay [5], 22 µM; in assay [6], 59.9 µM. Further, the TGI is 52.7 µM in assay [7], over 100 µM in assay [8], 65.9 µM in assay [9] and over 100 µM in assay [10].

With `COC(=O)[C@]12CC[C@@H](C)[C@H](C)[C@@H]1C1=CC[C@@H]3[C@@]4(C)C[C@@H](O)[C@H](O)[C@@](C)(CO)C4=CC[C@@]3(C)[C@]1(C)CC2`, the GI50 is 19.4 µM in assay [1]; 14.3 µM in assay [2]; 14.8 µM in assay [3]; 15.7 µM in assay [4]; 18.3 µM in [5]; 17.5 µM in assay [6]. Also, the GI50 in [7] is 17.5 µM; in assay [8], 21.3 µM; in [9], 17.3 µM; in assay [10], 17.1 µM. The TGI stood at 34.5 µM in assay [1]; 28 µM in [2]; 32.5 µM in assay [3]; 33.8 µM in [4]; 37.8 µM in assay [5]; 31.3 µM in assay [6]. Further, the TGI in [7] was determined as 33.6 µM; in assay [8] it was 39.2 µM; in [9], 35.4 µM; in assay [10] it was 37.4 µM.

On to `CCOC(=O)N[C@H]1CCc2cc(OC)c(OC)c(OC)c2-c2ccc(SC)c(=O)cc21`, for which the values for the GI50 in assay [1], in assay [2] and in [6] were 7.23 µM, under 0.01 µM and under 0.0122 µM, respectively. Besides, the TGI was over 100 µM in [1]; over 100 µM in assay [4]; over 100 µM in assay [6]; 21.7 µM and > 27.1 µM in [7]; over 100 µM in assay [8]; over 100 µM in assay [9]. This compound showed a TGI in assay [10] of over 100 µM.

Regarding `CC12CCC(=O)C[C@H]1CCC(OC=O)C2Br` (some centres undefined), the TGI in assay [1], in assay [2], in assay [3], in [4], in [5] and in assay [6] was over 100 µM in each case. In addition, the TGI in assay [7], in assay [8], in assay [9] and in assay [10] was over 100 µM throughout.

Regarding `Clc1cc2c(c(CSc3nc4ccccc4n4cccc34)c1)OCOC2`, the GI50 is 3.49 µM in assay [1]; 6.48 µM in assay [2]; over 100 µM in [3]; 20.6 µM in assay [4]; 7.5 µM in assay [5]; 29.6 µM in [6]. Further, the GI50 in [7] was over 100 µM; in assay [8], 10.3 µM; in assay [9], over 100 µM; in [10], over 100 µM. Further, the TGI is 60.3 µM in [1]; 26.8 µM in assay [2]; over 100 µM in assay [3]; over 100 µM in [4]; over 100 µM in [5]; over 100 µM in assay [6]. Besides, the TGI in assay [7] is over 100 µM; in assay [8], 31.8 µM; in [9], over 100 µM; in assay [10], over 100 µM.

For `COc1c(O)c2c(=O)cc3c4c5c(cc(=O)c6c(O)c(OC)c(CC(C)O)c(c(c1CC(C)O)c24)c65)OCO3` (centres undefined), the TGI in assay [1] was found to be 8.12 µM; in [2], 7.56 µM; in assay [3] it was 4.09 µM; in assay [4], 5.15 µM; in assay [5], 6.63 µM; in [6] it was 1.27 µM. The TGI in [7] worked out at 3.57 µM; in assay [8] it was 4.01 µM; in [9], 8.39 µM; in assay [10], 9.41 µM.

Consider `Nc1ncn([C@@H]2O[C@H](CO)[C@@H](O)[C@H]2O)c(=O)n1`, for which the GI50 was 1.63 µM in assay [2]; 0.766 µM in [4]; 1.56 µM in assay [5]; 3.65 µM in assay [6]; 1.38 µM in assay [7]; 0.49 µM in assay [8]. Moreover, the GI50 in [9] was 1.03 µM; in assay [10], 3.5 µM. For the same compound, the TGI in assay [2] was 6.2 µM; in [4], over 100 µM; in [5] it was 3.69 µM; in assay [6] it was 25.3 µM; in [7], 10.8 µM; in assay [8], 2.67 µM. Besides, the TGI in assay [9] and in [10] was over 100 µM throughout.

With `O=C(/C(=C/c1ccc(Cl)cc1)c1ccccc1)c1ccccc1`, the TGI was 56.8 µM in [1]; 69.4 µM in assay [2]; 30.5 µM in assay [3]; 50.7 µM in [4]; 31.3 µM in assay [6]; 31.4 µM in assay [7]. For the same compound, the TGI in assay [8] is 57.5 µM; in assay [10] it was 45.3 µM.

Consider `COc1cc(N(CCC#N)CCC#N)ccc1/C(N=Nc1ccc(Cl)cc1)=N/NC(=O)c1cc(Br)ccc1O`, for which the GI50 is 25 µg/mL in assay [2]; 48 µg/mL in assay [3]; 39 µg/mL in [4]; 50 µg/mL in assay [5]; over 150 µg/mL in [6]; 58.5 µg/mL in assay [7]. Moreover, the GI50 in [9] was 85.5 µg/mL; in [10] it was 96.3 µg/mL. Moreover, the TGI in [2] was 95.1 µg/mL; in assay [3] it was 129 µg/mL; in assay [4], 108 µg/mL; in [5], over 150 µg/mL; in assay [6], over 150 µg/mL; in assay [7], over 150 µg/mL. The TGI in assay [9] and in [10] was over 150 µg/mL in each case.

For `COc1cc(Cl)cc(-c2nn(-c3cccc(NC(=O)c4ccc(N5CCOCC5)c(C(F)(F)F)c4)c3)cc2-c2ccncc2)c1`, the GI50 is 2.08 µM in assay [2]; 5.38 µM in assay [3]; 6.33 µM in assay [4]; 53.1 µM in [5]; 28.3 µM in assay [6]; 7.93 µM in assay [7]. For the same compound, the GI50 in [8] was 62.5 µM; in assay [9], 9.15 µM; in [10], 3.06 µM. In addition, the TGI in assay [2], in assay [3], in assay [4], in [5], in [6] and in assay [7] was over 100 µM each time. The TGI in assay [8], in assay [9] and in assay [10] was over 100 µM each time.
